Experimental data: paper PMC11511665 (2024)

What was measured:
[1] = tested on: Clivia_III (III_R8) (RNA, aptamer) GGAAGAUUGUAAACAGCGAGAUUGUAAACAGCGAGAUUGUAAACAUGCCGAAAGGCAGACACUCGCGACACUCGCGACACUUUC; assay: X-ray crystallography; details: 0.2 M MgCl2; 20% PEG 3350, 16 °C
[2] = tested on: M1 (delete U7; Del-U7) (RNA, aptamer) GGAAGAUGUAAACAUGCCGAAAGGCAGACACUUCC; assay: fluorescence activation; details: 100 mM KCl, 5 mM MgCl2; 40 mM HEPES pH 7.4; 1 μM fluorophore, 5 μM RNA
[3] = tested on: M2 (A11G/A12G/A13G) (RNA, aptamer) GGAAGAUUGUGGGCAUGCCGAAAGGCAGACACUUCC; assay: fluorescence activation; details: 100 mM KCl, 5 mM MgCl2; 40 mM HEPES pH 7.4; 1 μM fluorophore, 5 μM RNA
[4] = tested on: M3 (A11C/A12C/A13C) (RNA, aptamer) GGAAGAUUGUCCCCAUGCCGAAAGGCAGACACUUCC; assay: fluorescence activation; details: 100 mM KCl, 5 mM MgCl2; 40 mM HEPES pH 7.4; 1 μM fluorophore, 5 μM RNA
[5] = tested on: M4 (A11U/A12U/A13U) (RNA, aptamer) GGAAGAUUGUUUUCAUGCCGAAAGGCAGACACUUCC; assay: fluorescence activation; details: 100 mM KCl, 5 mM MgCl2; 40 mM HEPES pH 7.4; 1 μM fluorophore, 5 μM RNA
[6] = tested on: M5 (U8C/A29G) (RNA, aptamer) GGAAGAUCGUAAACAUGCCGAAAGGCAGGCACUUCC; assay: fluorescence activation; details: 100 mM KCl, 5 mM MgCl2; 40 mM HEPES pH 7.4; 1 μM fluorophore, 5 μM RNA
[7] = tested on: M6 (U8A/A29U) (RNA, aptamer) GGAAGAUAGUAAACAUGCCGAAAGGCAGUCACUUCC; assay: fluorescence activation; details: 100 mM KCl, 5 mM MgCl2; 40 mM HEPES pH 7.4; 1 μM fluorophore, 5 μM RNA
[8] = tested on: M7 (A15G/G28A) (RNA, aptamer) GGAAGAUUGUAAACGUGCCGAAAGGCAAACACUUCC; assay: fluorescence activation; details: 100 mM KCl, 5 mM MgCl2; 40 mM HEPES pH 7.4; 1 μM fluorophore, 5 μM RNA
[9] = tested on: M8 (G28U) (RNA, aptamer) GGAAGAUUGUAAACAUGCCGAAAGGCAUACACUUCC; assay: fluorescence activation; details: 100 mM KCl, 5 mM MgCl2; 40 mM HEPES pH 7.4; 1 μM fluorophore, 5 μM RNA
[10] = tested on: M9 (A15C) (RNA, aptamer) GGAAGAUUGUAAACCUGCCGAAAGGCAGACACUUCC; assay: fluorescence activation; details: 100 mM KCl, 5 mM MgCl2; 40 mM HEPES pH 7.4; 1 μM fluorophore, 5 μM RNA
[11] = tested on: Clivia_II (II_R8) (RNA, aptamer) GGAAGAUUGUAAACAGCGAGAUUGUAAACAUGCCGAAAGGCAGACACUCGCGACACUUUC; assay: fluorescence activation; details: 100 mM KCl, 5 mM MgCl2; 40 mM HEPES pH 7.4
[12] = tested on: Clivia_IV (IV_R8) (RNA, aptamer) GGAAGAUUGUAAACAGCGAGAUUGUAAACAGCGAGAUUGUAAACAGCGAGAUUGUAAACAUGCCGAAAGGCAGACACUCGCGACACUCGCGACACUCGCGACACUUUC; assay: fluorescence activation; details: 100 mM KCl, 5 mM MgCl2; 40 mM HEPES pH 7.4
[13] = tested on: Clivia_V (V_R8) (RNA, aptamer) GGAAGAUUGUAAACAGCGAGAUUGUAAACAGCGAGAUUGUAAACAGCGAGAUUGUAAACAGCGAGAUUGUAAACAUGCCGAAAGGCAGACACUCGCGACACUCGCGACACUCGCGACACUCGCGACACUUUC; assay: fluorescence activation; details: 100 mM KCl, 5 mM MgCl2; 40 mM HEPES pH 7.4
[14] = tested on: Clivia_VI (VI_R8) (RNA, aptamer) GGAAGAUUGUAAACAGCGAGAUUGUAAACAGCGAGAUUGUAAACAGCGAGAUUGUAAACAGCGAGAUUGUAAACAGCGAGAUUGUAAACAUGCCGAAAGGCAGACACUCGCGACACUCGCGACACUCGCGACACUCGCGACACUCGCGACACUUUC; assay: fluorescence activation; details: 100 mM KCl, 5 mM MgCl2; 40 mM HEPES pH 7.4
[15] = tested on: Clivia (R8 aptamer, GAAA tetraloop) (RNA, aptamer) GGAAGAUUGUAAACAUGCCGAAAGGCAGACACUUCC; assay: X-ray crystallography, 1.6 Å; details: Mg2+ (0.05 M MgCl2); 0.1 M HEPES pH 7.5, 30% PEG MME 550, 16 °C
[16] = tested on: Clivia (R8 aptamer, GAAA tetraloop) (RNA, aptamer) GGAAGAUUGUAAACAUGCCGAAAGGCAGACACUUCC; assay: fluorescence titration, Hill fit; details: 100 mM KCl, 5 mM MgCl2; 40 mM HEPES pH 7.4; 20 nM RNA
[17] = tested on: U7A (RNA, aptamer) GGAAGAAUGUAAACAUGCCGAAAGGCAGACACUUCC; assay: fluorescence titration, Hill fit; details: 100 mM KCl, 5 mM MgCl2; 40 mM HEPES pH 7.4; 20 nM RNA
[18] = tested on: U7C (RNA, aptamer) GGAAGACUGUAAACAUGCCGAAAGGCAGACACUUCC; assay: fluorescence titration, Hill fit; details: 100 mM KCl, 5 mM MgCl2; 40 mM HEPES pH 7.4; 20 nM RNA
[19] = tested on: U7G (RNA, aptamer) GGAAGAGUGUAAACAUGCCGAAAGGCAGACACUUCC; assay: fluorescence titration, Hill fit; details: 100 mM KCl, 5 mM MgCl2; 40 mM HEPES pH 7.4; 20 nM RNA
[20] = tested on: M10 (delete 2bp in P1; Del-2bp-P1) (RNA, aptamer) GAGAUUGUAAACAUGCCGAAAGGCAGACACUC; assay: fluorescence titration, Hill fit; details: 100 mM KCl, 5 mM MgCl2; 40 mM HEPES pH 7.4; 20 nM RNA
[21] = tested on: M11 (add 2bp in P1; Ad-2bp-P1) (RNA, aptamer) GGGGAAGAUUGUAAACAUGCCGAAAGGCAGACACUUCCCC; assay: fluorescence titration, Hill fit; details: 100 mM KCl, 5 mM MgCl2; 40 mM HEPES pH 7.4; 20 nM RNA
[22] = tested on: M12 (delete 2bp in P2; Del-2bp-P2) (RNA, aptamer) GGAAGAUUGUAAACACCGAAAGGGACACUUCC; assay: fluorescence titration, Hill fit; details: 100 mM KCl, 5 mM MgCl2; 40 mM HEPES pH 7.4; 20 nM RNA
[23] = tested on: M13 (add 2bp in P2; Ad-2bp-P2) (RNA, aptamer) GGAAGAUUGUAAACAUGCCGCGAAAGCGGCAGACACUUCC; assay: fluorescence titration, Hill fit; details: 100 mM KCl, 5 mM MgCl2; 40 mM HEPES pH 7.4; 20 nM RNA
[24] = tested on: Clivia (R8 aptamer, GAAA tetraloop) (RNA, aptamer) GGAAGAUUGUAAACAUGCCGAAAGGCAGACACUUCC; assay: X-ray crystallography; details: Mg2+ (0.05 M MgCl2); 0.1 M HEPES pH 7.5, 30% PEG MME 550, 16 °C

## CN1C(=O)/C(=C/c2ccc(N(C)CCO)cc2)N=C1/C=C/c1ccccc1
[1]
  binding: yes
[2]
  binding: no
[3]
  binding: no
[4]
  binding: no
[5]
  binding: no
[6]
  binding: no
[7]
  binding: no
[8]
  binding: no
[9]
  binding: weak
[10]
  binding: no
[11]
  binding: yes
[12]
  binding: yes
[13]
  binding: yes
[14]
  binding: yes
[15]
  binding: yes
[16]
  Kd: 0.071 ± 0.015 µM
[17]
  Kd: 0.107 ± 0.012 µM
[18]
  Kd: 0.046 ± 0.003 µM
[19]
  Kd: 0.152 ± 0.012 µM
[20]
  Kd: 0.084 µM
[21]
  Kd: 0.061 µM
[22]
  Kd: 0.044 µM
[23]
  Kd: 0.055 µM

## CN1C(=O)/C(=C/c2cc(F)c(O)c(F)c2)N=C1/C=C/c1ccc(O)cc1
[24]
  binding: yes

## CN1C(=O)/C(=C/c2cc(F)c(O)c(F)c2)N=C1/C=C/c1ccccc1
[24]
  binding: yes

## CN1C(=O)/C(=C/c2cc(F)c(O)c(F)c2)N=C1/C=C/c1ccc(C#N)cc1
[24]
  binding: yes
